From patent US5081149A, “Antihepatopathic method” (Senju Pharmaceutical Co., Ltd., priority 1989, dated 1992)

Key:
platelet aggregation = conditions: Kokai No. 63-8337 and Japanese Patent Applications Nos. 1-79956 and 1-183484; cited from earlier work
blood coagulation = conditions: Kokai No. 63-8337 and Japanese Patent Applications Nos. 1-79956 and 1-183484; cited from earlier work
[1] = Kokai No. 63-8337 and Japanese Patent Applications Nos. 1-79956 and 1-183484; cited from earlier work
[2] = system: acetaminophen-induced hepatopathy; assay: Effects of DCE-GS on acetaminophen-induced hepatopathy in rats; type: in vivo, SD-strain male rats; conditions: for LDH (lactate dehydrogenase) / s-GOT / s-GPT / s-TG (serum triglyceride): 1 h before acetaminophen 300 mg/kg i.p., blood at 24 h, mean ± standard error (n = 6 to 8)
Experimental: After 24 hours of fasting, SD-strain male rats weighing 180 g were orally given 200, 400 or 800 mg/kg of S-(α, β-dicarboxyethyl)glutathione (hereinafter referred to as "DCE-GS" for short). A control group was given physiological saline. An hour later, 300 mg/kg acetaminophen was intraperitoneally administered to each rat for causing hepatopathy. Twenty-four hours after acetaminophen administration,blood samples were collected from the rats under pentobarbital anesthesia via the abdominal aorta and subjected to blood biochemistry tests.

[3] = 400 mg/kg oral, *p < 0.05 vs saline
[4] = 800 mg/kg oral, *p < 0.05 vs saline

For `N[C@@H](CCC(=O)N[C@@H](CSC(CC(=O)O)C(=O)O)C(=O)NCC(=O)O)C(=O)O` (stereo partly drawn) [DCE-GS, S-(α, β-Dicarboxyethyl)glutathione], the “platelet aggregation inhibiting activity” value (platelet aggregation) is given as “platelet aggregation inhibiting”, the “blood coagulation inhibiting activity” value (blood coagulation) is given as “blood coagulation inhibiting” and the “antiinflammatory and/or antiallergic activity” value [1] is given as “antiinflammatory and/or antiallergic activity”. The “LDH (lactate dehydrogenase)” value ([2]; 200 mg/kg oral) was 6029 ± 485 Wrobrewski units, the s-GOT ([2]; 200 mg/kg oral) was 1221 ± 179 IU/liter and the s-GPT ([2]; 200 mg/kg oral) was 499 ± 66 IU/liter. The “s-TG (serum triglyceride)” value ([2]; 200 mg/kg oral) was 28.8 ± 5.0 mg/dL, the “s-TG (serum triglyceride)” value ([2]; 400 mg/kg oral) was 36.1 ± 7.6 mg/dL and the “LDH (lactate dehydrogenase)” value [2, 3] was 4873 ± 973 Wrobrewski units. The s-GOT [2, 3] was 677 ± 219 IU/liter, the s-GPT [2, 3] was 262 ± 89 IU/liter and the “LDH (lactate dehydrogenase)” value [2, 4] was 3722 ± 595 Wrobrewski units. For the same compound, the s-GOT [2, 4] was 438 ± 131 IU/liter, the s-GPT [2, 4] was 133 ± 39 IU/liter and the “s-TG (serum triglyceride)” value [2, 4] was 53.9 ± 10.4 mg/dL. The “effect on acetaminophen-induced changes in s-GOT, s-GPT, s-LDH and s-TG” value ([2]; 200, 400 or 800 mg/kg oral) was “dose-dependently suppressed the increases in s-GOT, s-GPT and s-LDH as well as the decrease in s-TG”.
